{"source": "ChEMBL document CHEMBL1201862", "about": "“PubChem BioAssay data set” (2004)", "key": {"Cytochrome P450 2C19": {"biological_target": "Cytochrome P450 2C19 (Homo sapiens, UniProt P33261)", "sequence (P33261 whole entry)": "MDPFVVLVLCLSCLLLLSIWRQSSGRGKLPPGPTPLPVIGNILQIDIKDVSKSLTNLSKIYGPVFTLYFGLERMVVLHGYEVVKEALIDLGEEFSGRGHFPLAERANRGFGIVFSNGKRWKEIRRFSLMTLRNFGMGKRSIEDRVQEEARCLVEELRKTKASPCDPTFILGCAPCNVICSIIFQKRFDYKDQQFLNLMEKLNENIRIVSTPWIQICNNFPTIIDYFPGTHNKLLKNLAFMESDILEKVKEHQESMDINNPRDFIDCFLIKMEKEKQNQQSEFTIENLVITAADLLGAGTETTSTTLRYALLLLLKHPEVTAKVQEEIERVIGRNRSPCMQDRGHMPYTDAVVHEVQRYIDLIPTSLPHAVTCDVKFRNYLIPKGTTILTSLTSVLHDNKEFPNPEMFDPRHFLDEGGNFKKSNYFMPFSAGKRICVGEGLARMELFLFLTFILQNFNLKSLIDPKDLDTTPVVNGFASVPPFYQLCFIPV", "assay": "Cytochrome panel assay with activity outcomes. Panel member name: p450-cyp2c19 Compounds with AC50 equal or less than 10 uM are considered active", "type": "functional"}, "Cytochrome P450 2C9": {"biological_target": "Cytochrome P450 2C9 (Homo sapiens, UniProt P11712)", "sequence (P11712 whole entry)": "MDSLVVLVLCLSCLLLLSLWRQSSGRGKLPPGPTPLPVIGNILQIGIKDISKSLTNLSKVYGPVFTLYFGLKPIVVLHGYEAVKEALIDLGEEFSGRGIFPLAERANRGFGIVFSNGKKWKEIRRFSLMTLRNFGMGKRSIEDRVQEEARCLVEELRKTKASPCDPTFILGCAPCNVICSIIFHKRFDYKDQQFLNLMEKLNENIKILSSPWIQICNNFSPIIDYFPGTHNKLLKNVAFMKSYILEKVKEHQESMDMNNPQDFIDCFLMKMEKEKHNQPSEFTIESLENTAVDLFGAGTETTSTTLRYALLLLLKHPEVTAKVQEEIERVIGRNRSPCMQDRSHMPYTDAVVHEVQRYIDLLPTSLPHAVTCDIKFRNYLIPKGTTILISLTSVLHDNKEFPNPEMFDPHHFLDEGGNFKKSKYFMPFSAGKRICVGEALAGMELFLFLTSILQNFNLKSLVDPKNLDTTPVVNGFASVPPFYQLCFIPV"}, "Cytochrome P450 1A2": {"biological_target": "T1, Cytochrome P450 1A2 (Homo sapiens, UniProt P05177)", "T1 sequence (P05177 whole entry)": "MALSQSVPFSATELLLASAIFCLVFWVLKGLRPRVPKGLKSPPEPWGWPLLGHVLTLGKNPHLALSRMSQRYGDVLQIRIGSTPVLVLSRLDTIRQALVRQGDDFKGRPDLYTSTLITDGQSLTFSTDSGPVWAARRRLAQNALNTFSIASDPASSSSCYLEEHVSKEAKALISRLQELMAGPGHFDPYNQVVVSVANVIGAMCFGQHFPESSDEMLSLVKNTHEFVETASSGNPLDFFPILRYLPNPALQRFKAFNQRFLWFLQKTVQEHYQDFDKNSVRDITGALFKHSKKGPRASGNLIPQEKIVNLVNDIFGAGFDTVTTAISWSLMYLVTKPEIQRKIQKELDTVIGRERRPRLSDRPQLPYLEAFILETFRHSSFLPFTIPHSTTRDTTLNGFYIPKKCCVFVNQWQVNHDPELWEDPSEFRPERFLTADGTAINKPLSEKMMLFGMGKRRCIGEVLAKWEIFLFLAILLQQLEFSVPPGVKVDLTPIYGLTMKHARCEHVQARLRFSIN"}, "[1]": {"biological_target": "T2, Corticotropin-releasing factor receptor 2/Corticotropin-releasing factor-binding protein (Homo sapiens, UniProt P24387+Q13324)", "T2 sequence (Q13324 whole entry)": "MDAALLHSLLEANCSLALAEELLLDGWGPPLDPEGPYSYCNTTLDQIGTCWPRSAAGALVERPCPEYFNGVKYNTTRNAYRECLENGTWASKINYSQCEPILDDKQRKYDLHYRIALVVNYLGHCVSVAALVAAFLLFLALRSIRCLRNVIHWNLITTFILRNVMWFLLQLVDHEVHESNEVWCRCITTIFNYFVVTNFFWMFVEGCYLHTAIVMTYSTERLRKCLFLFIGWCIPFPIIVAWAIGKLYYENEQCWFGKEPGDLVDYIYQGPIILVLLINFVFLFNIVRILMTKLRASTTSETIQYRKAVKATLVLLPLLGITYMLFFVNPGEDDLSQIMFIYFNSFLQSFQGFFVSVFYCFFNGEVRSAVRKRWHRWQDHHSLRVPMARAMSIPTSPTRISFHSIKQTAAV", "T2 sequence (P24387 whole entry)": "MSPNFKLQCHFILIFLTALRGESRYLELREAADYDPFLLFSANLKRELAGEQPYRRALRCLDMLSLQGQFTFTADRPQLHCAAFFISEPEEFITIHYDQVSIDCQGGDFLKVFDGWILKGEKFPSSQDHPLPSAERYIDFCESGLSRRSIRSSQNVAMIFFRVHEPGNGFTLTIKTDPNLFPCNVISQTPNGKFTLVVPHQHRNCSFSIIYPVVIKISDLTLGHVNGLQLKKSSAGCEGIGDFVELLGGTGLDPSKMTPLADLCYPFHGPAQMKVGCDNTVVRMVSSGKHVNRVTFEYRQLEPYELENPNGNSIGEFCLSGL", "assay": "activators of CRF receptor 2 with binding protein – uHTS hits, confirmation (AID 602473)", "type": "functional", "conditions": "read-out: EC50_Mean"}, "[2]": {"assay": "inhibitors of intracellular T. cruzi replication, confirmation, NIH3T3 host cells, beta-gal luminescence (AID 2044);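 further: luminescent beta-galactosidase reporter signal from transgenic T. cruzi replicating inside host cells; inhibitors lower the luminescence signal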", "type": "functional, cell-based"}, "[3]": {"assay": "cytotoxicity toward NIH3T3 fibroblasts, dose response, counter-screen, cell-based, ATP luminescence, mouse fibroblasts (AID 2010);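 further: cells exposed to compound for about 90 hours before reading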", "type": "functional"}, "[4]": {"assay": "Luminescence Cell-Based Dose Confirmation HTS to Identify Activators of 5'UTR Stem-Loop Driven Alpha-Synuclein mRNA Translation in H4 Neuroglioblastoma Cells. [Related pubchem assays: 1829 (Project Summary), 1814 (Primary HTS)]", "type": "functional"}, "[5]": {"assay": "Luminescence Cell-Based Dose Response HTS to Identify Activators of Luciferase Translation or Activity in H4 […] Cells. [Related pubchem assays: 1829 (Project Summary), 1814 (Primary HTS)]", "type": "functional"}, "H4": {"test_system": "H4", "assay": "Luminescence Cell-Based Dose Response HTS to Identify Activators of 5'UTR Stem-Loop Driven Prion Protein mRNA Translation in H4 Neuroglioblastoma Cells. [Related pubchem assays: 1829 (Project Summary), 1814 (Primary HTS)]", "type": "functional", "conditions": "Homo sapiens"}}, "note": "“And” between values parts separate entries of the source, which are not always exact repeats. Equal entries are not always repeated. The source made the active and inactive calls.", "data": [{"compound": "O=C(Nc1ccccc1)N1CCOCC1", "values": [{"measurement": "AC50", "setting": "Cytochrome P450 2C19; read-out: AC50", "value": "31.6 µM (inconclusive)"}, {"measurement": "AC50", "setting": "Cytochrome P450 2C9", "value": "0.562 µM (inconclusive)"}]}, {"compound": "Cc1ccc(-c2ccc(CCC(=O)O)o2)cc1", "values": [{"measurement": "AC50", "setting": "Cytochrome P450 1A2", "value": "25.1 µM (inconclusive)"}]}, {"compound": "Cc1cccc(C)c1N1CCN(S(=O)(=O)N2CCCCC2)CC1", "values": [{"measurement": "EC50", "setting": "[1]", "value": "5.58 µM (active)"}]}, {"compound": "COc1ccc(N(CC(=O)O)N=O)cc1", "values": [{"measurement": "AC50", "setting": "Cytochrome P450 2C19", "value": "inconclusive"}, {"measurement": "AC50", "setting": "Cytochrome P450 1A2", "value": "0.0251 µM (inconclusive)"}]}, {"compound": "COc1ccc(Cn2nnnc2C(c2ccccn2)N2CCN(c3cc(Cl)ccc3C)CC2)cc1", "note": "(stereo unspecified)", "values": [{"measurement": "EC50", "setting": "[2]", "value": "2.04 µM (active)"}, {"measurement": "EC50", "setting": "[3]", "value": "> 60 µM (not active)"}]}, {"compound": "CCN1C(=S)SC(=O)C1=C1C=C(C)N(CCO)C(C)=C1", "values": [{"measurement": "EC50", "setting": "[4]", "value": "0.102 µM (active)"}]}, {"compound": "COc1ccc(C2=CC(c3cccc(OC)c3)n3nnnc3N2)cc1", "note": "(stereo unspecified)", "values": [{"measurement": "EC50", "setting": "[1]", "value": "> 53 µM (inactive)"}]}, {"compound": "Cn1cc(-c2nc3cnc(Oc4ccccc4)nc3n(C)c2=O)c2ccccc21", "values": [{"measurement": "AC50", "setting": "Cytochrome P450 1A2", "value": "12.6 µM (inconclusive)"}]}, {"compound": "COc1cc(=O)n(C)c2c(OC[C@@H](O)C(C)(C)O)cccc12", "values": [{"measurement": "AC50", "setting": "Cytochrome P450 1A2", "value": "20 µM (inconclusive) and 12.6 µM (inconclusive)"}]}, {"compound": "CN(Cc1ccco1)c1ncnc2ccc(-c3ccc4c(c3)OCO4)cc12", "values": [{"measurement": "AC50", "setting": "Cytochrome P450 2C9", "value": "1.26 µM (inconclusive)"}]}, {"compound": "COC(=O)Cn1ncn2c(cc3oc(C)cc32)c1=O", "values": [{"measurement": "EC50", "setting": "[4]", "value": "2.68 µM (active)"}, {"measurement": "EC50", "setting": "[5]", "value": "56 µM (active)"}, {"measurement": "EC50", "setting": "H4", "value": "14.7 µM (active)"}]}, {"compound": "COc1cccc2nc(O)c(-c3ccccc3)cc12", "values": [{"measurement": "EC50", "setting": "[4]", "value": "9.22 µM (active)"}, {"measurement": "EC50", "setting": "[5]", "value": "8.86 µM (active)"}]}, {"compound": "CN1CCN(NC(=O)Nc2cccc(Cl)c2Cl)CC1", "values": [{"measurement": "EC50", "setting": "[2]", "value": "0.184 µM (active)"}, {"measurement": "EC50", "setting": "[3]", "value": "> 60 µM (not active)"}]}, {"compound": "Cc1cc(C)c(C(=O)Cn2cnc3cc([N+](=O)[O-])ccc3c2=O)cc1C", "values": [{"measurement": "EC50", "setting": "[2]", "value": "1.61 µM (active)"}, {"measurement": "EC50", "setting": "[3]", "value": "> 60 µM (not active)"}]}, {"compound": "COc1ccc(C(=O)NCC(=O)N2CCN(C(=O)c3ccco3)CC2)cc1", "values": [{"measurement": "EC50", "setting": "[1]", "value": "> 53 µM (inactive)"}]}, {"compound": "COc1ccc([N+](=O)[O-])c2c1CCN2C(=O)CC[C@H](N)C(=O)O", "values": [{"measurement": "AC50", "setting": "Cytochrome P450 1A2", "value": "31.6 µM (inconclusive)"}]}, {"compound": "O=C(c1ccc(Cl)cc1)C1CCCN(Cc2cccn2-c2cccnc2)C1", "note": "(stereo unspecified)", "values": [{"measurement": "EC50", "setting": "[2]", "value": "2.58 µM (active)"}, {"measurement": "EC50", "setting": "[3]", "value": "> 60 µM (not active)"}]}, {"compound": "O=C(c1ccc2nc3ccc(Cl)cc3c(=O)n2c1)N1CCOCC1", "values": [{"measurement": "AC50", "setting": "Cytochrome P450 1A2", "value": "14.1 µM (inconclusive)"}]}, {"compound": "CCNc1ncc2nc(-c3cccs3)c(=O)n(-c3ccccc3)c2n1", "values": [{"measurement": "AC50", "setting": "Cytochrome P450 1A2", "value": "1.58 µM (inconclusive)"}]}, {"compound": "COc1ccccc1CNc1ccnc(-c2ccoc2)n1", "values": [{"measurement": "AC50", "setting": "Cytochrome P450 2C9", "value": "1.26 µM (inconclusive)"}]}, {"compound": "COc1ccc(N(CC(=O)NCCC2=CCCCC2)S(=O)(=O)c2ccc(C)cc2)cc1", "values": [{"measurement": "EC50", "setting": "[2]", "value": "2.31 µM (active)"}, {"measurement": "EC50", "setting": "[3]", "value": "> 30 µM (not active)"}]}, {"compound": "O=C(CCc1nnc(C2CCCCC2)o1)N1CCN(c2ccccc2F)CC1", "values": [{"measurement": "EC50", "setting": "[4]", "value": "9.13 µM (active)"}, {"measurement": "EC50", "setting": "[5]", "value": "11.8 µM (active)"}]}, {"compound": "COc1ccc(CN2CCn3ncc(C(=O)Nc4ccccc4)c3C2=O)cc1", "values": [{"measurement": "EC50", "setting": "[4]", "value": "14.2 µM (active)"}, {"measurement": "EC50", "setting": "[5]", "value": "66.6 µM (active)"}, {"measurement": "EC50", "setting": "H4", "value": "18.9 µM (inconclusive)"}]}, {"compound": "Cc1ccc(NC(=O)C2CCN(c3cnccn3)CC2)cc1", "values": [{"measurement": "EC50", "setting": "[2]", "value": "0.9 µM (active)"}, {"measurement": "EC50", "setting": "[3]", "value": "> 60 µM (not active)"}]}, {"compound": "Cc1c(NC2=N/C(=N\\C(=O)c3cccs3)c3ccccc32)c(=O)n(-c2ccccc2)n1C", "values": [{"measurement": "EC50", "setting": "[1]", "value": "5.98 µM (active)"}]}, {"compound": "Cc1cc(NS(=O)(=O)c2ccc(NC(=O)c3cccc(OC(F)F)c3)cc2)nc(C)n1", "values": [{"measurement": "EC50", "setting": "[1]", "value": "> 53 µM (inactive)"}]}, {"compound": "CCOCCCN1CC(C(=O)NCCc2ccc(C)cc2)CC1=O", "note": "(stereo unspecified)", "values": [{"measurement": "AC50", "setting": "Cytochrome P450 2C19; read-out: AC50", "value": "25.1 µM (inconclusive)"}]}]}
